Values after ≈ are worked out from the molar mass of the structure shown.
Experiments:
[1] = tested on: ATCC25922; assay: MIC on E. coli ATCC25922; assay type: cell-based; details: strain ATCC25922
Experimental: The inoculum used for all the experiments is derived from a single seed lot that is maintained as glycerol stocks at −80 °C and are sub cultured on LB plate for isolated colonies. Single colony of each strain is grown in M9 medium. All test compound stocks and dilutions are prepared in DMSO. Serial two-fold dilutions of compounds are prepared separately, with the concentrations ranging from 2 mg/mL to 0.015 mg/mL. To 150 µl (3–7 × 10^5 CFU/ml) of bacterial culture in 96 well microtitre plates, 3 μL compound from each of the dilutions is added to respective wells to obtain final concentrations ranging from 40 µg/mL to 0.3 µg/mL of the test compounds. Media control, culture control and appropriate reference drug controls are included. […] Growth is monitored by checking absorbance at 600 nm (A600). […] The samples from MIC and above concentrations are plated for MBC (Minimum Bactericidal Concentration). The samples are diluted 1:10 and plated on LB agar plates. […] The killing kinetics is determined by enumerating survivors at various time points following compound exposure. E. coli cells (~10^7 CFU/ml; A600 of 0.1) are treated with various concentrations (40 µg/mL to 0.3 µg/mL) of compounds in a 96-well microtitre plate. At various time intervals (0 to 8 h), 30 μl volumes of treated cultures are serially diluted and plated on LB agar plates. […] Data is expressed as the log10 CFU for each drug treatment.

[2] = tested on: E. coli clinical isolates; assay: MIC on panel of E. coli clinical isolates; assay type: cell-based

Compound: C[C@@H](O)[C@H]1C(=O)N2C(C(=O)O)=C(S[C@@H]3CN[C@H](C(=O)N(C)C)C3)[C@H](C)[C@H]12 [meropenem, reference compound]
- MIC [1]: 0.06 µg/mL (≈ 0.156 µM)
- MIC Range ([2]; 75 E.coli clinical isolates): 0.03 to 8 µg/mL
- MIC50 ([2]; Escherichia coli, 75 E.coli clinical isolates, 50% clinical isolates): 0.06 µg/mL (≈ 0.156 µM)
- MIC90 ([2]; Escherichia coli, 75 E.coli clinical isolates, 90% clinical isolates): 8 µg/mL (≈ 20.9 µM)
- MIC ([2]; strain SEC001): > 4 µg/mL
- MIC ([2]; strain SEC002): 0.13 µg/mL (≈ 0.339 µM)
- MIC ([2]; strain SEC003): > 4 µg/mL
- MIC ([2]; strain SEC004): > 4 µg/mL
- MIC ([2]; strain SEC005): 0.06 µg/mL (≈ 0.156 µM)
- MIC ([2]; strain SEC006): 0.03 µg/mL (≈ 0.0782 µM)
- MIC ([2]; strain SEC007): 0.03 µg/mL (≈ 0.0782 µM)
- MIC ([2]; strain SEC008): 0.13 µg/mL (≈ 0.339 µM)
- MIC ([2]; strain SEC011): 0.06 µg/mL (≈ 0.156 µM)
- MIC ([2]; strain SEC012): 0.06 µg/mL (≈ 0.156 µM)
- MIC ([2]; strain SEC013): 0.06 µg/mL (≈ 0.156 µM)
- MIC ([2]; strain SEC014): 0.06 µg/mL (≈ 0.156 µM)
- MIC ([2]; strain SEC015): > 4 µg/mL
- MIC ([2]; strain SEC016): 0.03 µg/mL (≈ 0.0782 µM)
- MIC ([2]; strain SEC017): 0.06 µg/mL (≈ 0.156 µM)
- MIC ([2]; strain SEC018): 0.06 µg/mL (≈ 0.156 µM)
- MIC ([2]; strain SEC019): 0.06 µg/mL (≈ 0.156 µM)
- MIC ([2]; strain SEC020): > 4 µg/mL
- MIC ([2]; strain SEC021): 0.03 µg/mL (≈ 0.0782 µM)
- MIC ([2]; strain SEC022): 0.03 µg/mL (≈ 0.0782 µM)
- MIC ([2]; strain SEC023): 0.25 µg/mL (≈ 0.652 µM)
- MIC ([2]; strain SEC024): 0.25 µg/mL (≈ 0.652 µM)
- MIC ([2]; strain SEC025): 0.25 µg/mL (≈ 0.652 µM)
- MIC ([2]; strain SEC026): 0.13 µg/mL (≈ 0.339 µM)
- MIC ([2]; strain SEC028): 0.03 µg/mL (≈ 0.0782 µM)
- MIC ([2]; strain SEC029): 0.06 µg/mL (≈ 0.156 µM)
- MIC ([2]; strain SEC031): 0.06 µg/mL (≈ 0.156 µM)
- MIC ([2]; strain SEC032): 0.03 µg/mL (≈ 0.0782 µM)
- MIC ([2]; strain SEC033): 0.03 µg/mL (≈ 0.0782 µM)
- MIC ([2]; strain SEC034): 0.03 µg/mL (≈ 0.0782 µM)
- MIC ([2]; strain SEC035): 0.5 µg/mL (≈ 1.3 µM)
- MIC ([2]; strain SEC036): 0.06 µg/mL (≈ 0.156 µM)
- MIC ([2]; strain SEC037): 0.03 µg/mL (≈ 0.0782 µM)
- MIC ([2]; strain SEC038): 0.06 µg/mL (≈ 0.156 µM)
- MIC ([2]; strain SEC039): 0.03 µg/mL (≈ 0.0782 µM)
- MIC ([2]; strain SEC040): 0.06 µg/mL (≈ 0.156 µM)
- MIC ([2]; strain SEC041): > 4 µg/mL
- MIC ([2]; strain SEC042): 2 µg/mL (≈ 5.22 µM)
- MIC ([2]; strain SEC043): 0.06 µg/mL (≈ 0.156 µM)
- MIC ([2]; strain SEC044): 0.13 µg/mL (≈ 0.339 µM)
- MIC ([2]; strain SEC045): 0.06 µg/mL (≈ 0.156 µM)
- MIC ([2]; strain SEC046): 0.03 µg/mL (≈ 0.0782 µM)
- MIC ([2]; strain SEC047): 0.06 µg/mL (≈ 0.156 µM)
- MIC ([2]; strain SEC048): 0.25 µg/mL (≈ 0.652 µM)
- MIC ([2]; strain SEC049): 0.5 µg/mL (≈ 1.3 µM)
- MIC ([2]; strain SEC050): 0.03 µg/mL (≈ 0.0782 µM)
- MIC ([2]; strain SEC051): 0.03 µg/mL (≈ 0.0782 µM)
- MIC ([2]; strain SEC052): 1 µg/mL (≈ 2.61 µM)
- MIC ([2]; strain SEC053): 1 µg/mL (≈ 2.61 µM)
- MIC ([2]; strain SEC054): 0.03 µg/mL (≈ 0.0782 µM)
- MIC ([2]; strain SEC055): 0.06 µg/mL (≈ 0.156 µM)
- MIC ([2]; strain SEC057): 0.13 µg/mL (≈ 0.339 µM)
- MIC ([2]; strain SEC058): 0.06 µg/mL (≈ 0.156 µM)
- MIC ([2]; strain SEC059): 0.06 µg/mL (≈ 0.156 µM)
- MIC ([2]; strain SEC060): 0.06 µg/mL (≈ 0.156 µM)
- MIC ([2]; strain SEC061): 0.03 µg/mL (≈ 0.0782 µM)
- MIC ([2]; strain SEC062): 0.03 µg/mL (≈ 0.0782 µM)
- MIC ([2]; strain SEC063): > 4 µg/mL
- MIC ([2]; strain SEC064): 0.06 µg/mL (≈ 0.156 µM)
- MIC ([2]; strain SEC065): 0.03 µg/mL (≈ 0.0782 µM)
- MIC ([2]; strain SEC067): 0.06 µg/mL (≈ 0.156 µM)
- MIC ([2]; strain SEC068): > 4 µg/mL
- MIC ([2]; strain SEC069): 2 µg/mL (≈ 5.22 µM)
- MIC ([2]; strain SEC070): 0.03 µg/mL (≈ 0.0782 µM)
- MIC ([2]; strain SEC071): 0.03 µg/mL (≈ 0.0782 µM)
- MIC ([2]; strain SEC072): 0.06 µg/mL (≈ 0.156 µM)
- MIC ([2]; strain SEC073): 0.13 µg/mL (≈ 0.339 µM)
- MIC ([2]; strain SEC074): 0.06 µg/mL (≈ 0.156 µM)
- MIC ([2]; strain SEC075): 0.13 µg/mL (≈ 0.339 µM)
- MIC ([2]; strain SEC076): 0.06 µg/mL (≈ 0.156 µM)
- MIC ([2]; strain SEC077): 0.5 µg/mL (≈ 1.3 µM)
- MIC ([2]; strain SEC078): > 4 µg/mL
- MIC ([2]; strain SEC079): 0.06 µg/mL (≈ 0.156 µM)
- MIC ([2]; strain SEC080): 0.03 µg/mL (≈ 0.0782 µM)
